Measurements: patent US20120010281A1, “ANTIMICROBIAL AND ANTI[…]” (THE TRUSTEES OF PRINCETON UNIVERSITY, priority 2010, published 2012)
Converted amounts (≈) assume the structure as drawn.

System: M. tuberculosis mc^27000
Experiment: microbe, parasite or virus in culture
Format: cell-based
Settings: for MIC: Mycobacterium tuberculosis, 120 h, range of assayed concentrations that bounds the mean of three independent determinations, read-out: mc^27000 7H9 MIC; for inhibitory activity against Mtb mc^27000 (in words): comment on the Table 1 MIC values, relative to tiamulin

Row | Compound | MIC [µg/mL] | inhibitory activity against Mtb mc^27000 (in words)
1 | C=C1C[C@@H](OC(=O)CO)C2CCCC3(CCC(=O)C23)C[C@@H]1O (some centres unmarked) [Compound 4] | > 200 | –
2 | C=C1C[C@@H](OC(=O)CSCCN(CC)CC)C2CCCC3(CCC(=O)C23)C[C@@H]1O (some centres unmarked) [Compound 20a] | 50 to 100 (≈ 118 to 236 µM) | attenuated activity
3 | C=C1C[C@@H](OC(=O)CSCCN(CC)CC)C2CCCC3(CCC(=O)C23)C[C@H]1O (some centres unmarked) [Compound 20c] | 12 to 25 (≈ 28.3 to 59 µM) | compares favorably to tiamulin
4 | CCN(CC)CCSCC(=O)O[C@H]1C/C(C)=C\CC23CCCC1C2C(=O)CC3 (some centres unmarked) [Compound 25] | 50 (≈ 123 µM) | moderate, yet significant, level of activity
5 | C=CC1(C)C[C@@H](OC(=O)CO)C2(C)C(C)CCC3(CCC(=O)C32)[C@@H](C)[C@@H]1O (some centres unmarked) [Pleuromutilin (1), Pleuromutilin, reference compound] | 25 to 50 (≈ 66 to 132 µM) | low micromolar MIC values
6 | C=C[C@]1(C)C[C@@H](OC(=O)CSCCN(CC)CC)C2(C)C(C)CCC3(CCC(=O)C32)[C@@H](C)[C@@H]1O (some centres unmarked) [tiamulin (3), tiamulin, reference compound] | 12 to 25 (≈ 24.3 to 50.6 µM) | low micromolar MIC values
